Experimental data: patent US12122763B2, “Substituted piperidines for androgen receptor degradation” (UBIX THERAPEUTICS, INC., priority 2020, dated 2024)

Biological target: T1, Androgen Receptor (AR) protein (Homo sapiens, UniProt P10275, T878A)
T1 construct: endogenous in cells; host or cells: LNCaP
Test: Androgen Receptor (AR) protein degradation assay in LNCaP cells, western blotting
Type: cell-based
Conditions: 20 h; for inhibition at 0.01 µM: 0.01 μM compound; for inhibition at 0.1 µM: 0.1 μM compound; for inhibition at 1 µM: 1 μM compound; for inhibition at 10 µM: 10 μM compound
Procedure: Experimental Example 1: Androgen Receptor (AR) Protein Degradation Assay
After treating LNCaP cells with the synthesized Example compound, the amount of AR protein present in the cells was measured. The amount of AR protein was measured using western blotting detection method. The protocol of the experiment using LNCaP cells was as follows:
[Culture] LNCaP cells were resuspended in RPMI1640 MEDIUM (Hyclone, SH30027.01), 10% FBS (Hyclone, SV30207.02), and 1% Penicillin-streptomycin (Welgene, LS 202-02) media to be 3×10^5/mL. Then, 1 mL each was seeded in a 12-well plate. After that, they were cultured for 3 days.
[Compound treatment] 10 μl of 0.1, 1, 10, and 100 μM compound, which is the final compound treatment concentration and a 100× stock of 0.001, 0.01, 0.1, and 1 μM, was added in 1 ml media of each well, and 20 hours later, the cells were harvested.
[Cell Lysis] Cell pellets were suspended using 1% SDS lysis buffer (50 mM Tris, 1 mM EDTA, 1% SDS, pH 8.0, 0.5 mM PMSF, 1× Protease/Phosphatase inhibitor Cocktail (Cell Signaling Technology, 5872s)), and sonication (70% AMP, 5 cycles (30 sec ON/59 sec OFF)) was performed. Cell lysate was obtained after centrifugation at 4° C., 15000 g, for 20 minutes.
[Protein quantification] A BCA protein assay (SMART™ BCA Protein Assay Kit, iNtRON Biotechnology, 21071) was performed using a 96-well microplate. After adding 5 μl cell lysate and 5 μl 1% SDS lysis buffer to each well of the 96-well plate, 200 μl of BCA reagent (Reagent A:Reagent B=50:1) was additionally added. After incubation at 37° C. for 30 minutes, it was cooled at room temperature for 10 minutes. Then, absorbance was measured at a wavelength of 562 nm. The unknown protein concentration was measured using a BSA standard curve (0, 0.125, 0.25, 0.5, 1, 2 mg/ml). Western blotting samples were prepared by mixing cell lysate, 1% SDS lysis buffer, 4× Bolt™ LDS Sample buffer (Invitrogen, B0008), and 10× Bolt™ Sample Reducing Agent (Invitrogen, B0009) and boiling the mixture at 70° C. for 10 minutes.
[Electrophoresis] After loading 8 μg of protein sample into each well of Bolt™ 4 to 12%, Bis-Tris, 1.0 mm Mini Protein Gel, 17-well (Invitrogen, NW04127BOX), Bolt™ MES SDS Running Buffer (Invitrogen, B0002) was used for electrophoresis at 200V (constant V) for 50 minutes.
[Transfer] Using electrophoresis gel and Trans-Blot® Turbo™ Transfer Starter System (Bio-RAD, #17001918, Mini Nitrocellulose), transfer proceeded for 15 minutes under the condition of 1.3A (Constant A) and 25V (Limit V). To confirm protein transfer, 15 ml of Ponceau S solution (Sigma, P7170-1L) was used for staining for 1 minute, followed by washing to confirm the degree of transfer.
[Blocking] Membranes for AR detection were blocked for 45 minutes with 5% skim milk/0.2% TBST (Skim milk: BD, 232100/20× TBS: Biosesang, TR2008-100-00/10% Tween 20 Solution: Bio-RAD, #161-0781). Membranes for GAPDH and β-actin detection were blocked for 45 minutes with Odyssey blocking buffer: 0.1% TBST=1:1 (Odyssey blocking buffer: Li-COR Biosciences, 927-50000).
[Antibody and detection] The primary AR antibody (Androgen Receptor: CST, 5153s) was mixed with 5% skim milk/0.2% TBST at a ratio of 1:1000 and attached for 3 hours at room temperature. Primary β-actin antibody (GeneTex, 629630) was mixed with 5% BSA/0.2% TBST at a ratio of 1:2000 and attached for 3 hours at room temperature. Primary GAPDH antibody (GeneTex, 100118) was mixed with 5% BSA/0.2% TBST at a ratio of 1:2000 and attached for 3 hours at room temperature. After 3 hours, it was washed 3 times every 5 minutes using TBST (0.2% Tween 20). Anti-rabbit IgG, HRP-linked Antibody (CST, 7074s), secondary antibody for the AR antibody was mixed with 5% skim milk/0.2% TBST at a ratio of 1:5000 and attached for 45 minutes at room temperature. […]

T1 sequence (P10275 whole entry T878A): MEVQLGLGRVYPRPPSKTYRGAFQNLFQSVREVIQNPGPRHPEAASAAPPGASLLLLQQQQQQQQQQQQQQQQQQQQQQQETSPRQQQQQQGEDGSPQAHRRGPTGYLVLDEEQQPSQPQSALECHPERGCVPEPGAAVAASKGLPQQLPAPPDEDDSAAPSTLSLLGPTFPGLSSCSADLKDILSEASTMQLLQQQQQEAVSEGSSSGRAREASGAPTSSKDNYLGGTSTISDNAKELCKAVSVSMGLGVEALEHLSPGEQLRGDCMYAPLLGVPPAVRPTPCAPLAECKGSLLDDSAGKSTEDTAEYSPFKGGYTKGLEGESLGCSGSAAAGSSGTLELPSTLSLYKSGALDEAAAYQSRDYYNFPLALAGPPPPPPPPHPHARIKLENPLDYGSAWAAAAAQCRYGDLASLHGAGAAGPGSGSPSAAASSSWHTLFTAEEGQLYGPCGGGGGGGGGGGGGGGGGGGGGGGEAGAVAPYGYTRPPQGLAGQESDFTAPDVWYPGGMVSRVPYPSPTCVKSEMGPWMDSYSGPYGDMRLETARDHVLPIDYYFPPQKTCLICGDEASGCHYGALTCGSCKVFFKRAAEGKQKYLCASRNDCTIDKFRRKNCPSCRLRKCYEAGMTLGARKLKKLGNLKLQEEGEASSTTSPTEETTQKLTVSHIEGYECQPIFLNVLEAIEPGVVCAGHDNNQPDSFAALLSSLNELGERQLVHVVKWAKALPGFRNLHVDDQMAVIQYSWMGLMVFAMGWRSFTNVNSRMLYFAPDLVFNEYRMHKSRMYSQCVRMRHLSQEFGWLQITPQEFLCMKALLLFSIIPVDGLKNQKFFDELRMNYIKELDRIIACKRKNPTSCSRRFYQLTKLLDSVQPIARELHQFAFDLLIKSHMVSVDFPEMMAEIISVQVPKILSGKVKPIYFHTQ
T1 sequence (Q96SW2 whole entry partner): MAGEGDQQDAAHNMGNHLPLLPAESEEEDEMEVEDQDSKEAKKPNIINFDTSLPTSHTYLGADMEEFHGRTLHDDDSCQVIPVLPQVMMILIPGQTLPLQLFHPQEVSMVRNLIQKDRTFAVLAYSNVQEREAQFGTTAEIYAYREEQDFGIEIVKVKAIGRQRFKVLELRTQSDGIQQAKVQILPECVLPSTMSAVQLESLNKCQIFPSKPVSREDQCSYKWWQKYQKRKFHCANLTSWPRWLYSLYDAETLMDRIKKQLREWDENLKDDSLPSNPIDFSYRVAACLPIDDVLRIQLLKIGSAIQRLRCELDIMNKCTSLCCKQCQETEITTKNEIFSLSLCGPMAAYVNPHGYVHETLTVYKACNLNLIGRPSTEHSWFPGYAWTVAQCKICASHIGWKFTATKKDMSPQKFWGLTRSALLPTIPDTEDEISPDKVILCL

Row | SMILES | inhibition at 0.01 µM | inhibition at 0.1 µM | inhibition at 1 µM | inhibition at 10 µM
1 | N#Cc1ccc(N2CCC(C(=O)Nc3ccc(N4CCC(CN5CCN(c6ccc7c(c6)C(=O)N(C6CCC(=O)NC6=O)C7=O)CC5)CC4)cn3)CC2)cc1C(F)(F)F (stereo not drawn) [Example 1, 1-(4-cyano-3-(trifluoromethyl)phenyl)-N-(5-(4-((4-(2-(2,6-dioxopiperidin-3-yl)-1,3-dioxoisoindolin-5-yl)piperazin-1-yl)methyl)piperidin-1-yl)pyridin-2-yl)piperidine-4-carboxamide] | 55% | 98% | 99% | 99%
2 | N#Cc1ccc(N2CCC(C(=O)Nc3ccc(N4CCC(CN5CCN(c6ccc7c(c6)C(=O)N(C6CCC(=O)NC6=O)C7=O)CC5)CC4)cn3)CC2)cc1Cl (stereo not drawn) [Example 2, 1-(3-chloro-4-cyanophenyl)-N-(5-(4-((4-(2-(2,6-dioxopiperidin-3-yl)-1,3-dioxoisoindolin-5-yl)piperazin-1-yl)methyl)piperidin-1-yl)pyridin-2-yl)piperidine-4-carboxamide] | -9% | 68% | 97% | 96%
3 | N#Cc1ccc(N2CCC(C(=O)Nc3ccc(N4CCC(CN5CCN(CCOc6ccc7c(c6)C(=O)N(C6CCC(=O)NC6=O)C7=O)CC5)CC4)cn3)CC2)cc1C(F)(F)F (stereo not drawn) [Example 3, 1-(4-cyano-3-(trifluoromethyl)phenyl)-N-(5-(4-((4-(2-((2-(2,6-dioxopiperidin-3-yl)-1,3-dioxoisoindolin-5-yl)oxy)ethyl)piperazin-1-yl)methyl)piperidin-1-yl)pyridin-2-yl)piperidine-4-carboxamide] | 45% | 98% | 96% | 
4 | N#Cc1ccc(N2CCC(C(=O)Nc3ccc(N4CCC(CN5CCN(Cc6ccc7c(c6)C(=O)N(C6CCC(=O)NC6=O)C7=O)CC5)CC4)cn3)CC2)cc1C(F)(F)F (stereo not drawn) [Example 4, 1-(4-cyano-3-(trifluoromethyl)phenyl)-N-(5-(4-((4-((2-(2,6-dioxopiperidin-3-yl)-1,3-dioxoisoindolin-5-yl)methyl)piperazin-1-yl)methyl)piperidin-1-yl)pyridin-2-yl)piperidine-4-carboxamide] | 24% | 86% | 96% | 
5 | N#Cc1ccc(N2CCC(C(=O)Nc3ccc(N4CCC(CN5CCN(C(=O)CNc6ccc7c(c6)C(=O)N(C6CCC(=O)NC6=O)C7=O)CC5)CC4)cn3)CC2)cc1C(F)(F)F (stereo not drawn) [Example 5, 1-(4-cyano-3-(trifluoromethyl)phenyl)-N-(5-(4-((4-((2-(2,6-dioxopiperidin-3-yl)-1,3-dioxoisoindolin-5-yl)glycyl)piperazin-1-yl)methyl)piperidin-1-yl)pyridin-2-yl)piperidine-4-carboxamide] | 82% | 97% | 97% | 97%
6 | N#Cc1ccc(N2CCC(C(=O)Nc3ccc(N4CCC(CN5CCN(CC6CCN(c7ccc8c(c7)C(=O)N(C7CCC(=O)NC7=O)C8=O)CC6)CC5)CC4)cn3)CC2)cc1Cl (stereo not drawn) [Example 7, 1-(3-chloro-4-cyanophenyl)-N-(5-(4-((4-((1-(2-(2,6-dioxopiperidin-3-yl)-1,3-dioxoisoindolin-5-yl)piperidin-4-yl)methyl)piperazin-1-yl)methyl)piperidin-1-yl)pyridin-2-yl)piperidine-4-carboxamide] | 87% | 99% | 99% | 94%
7 | N#Cc1ccc(N2CCC(F)(C(=O)Nc3ccc(N4CCC(CN5CCN(CC6CCN(c7ccc8c(c7)C(=O)N(C7CCC(=O)NC7=O)C8=O)CC6)CC5)CC4)cn3)CC2)cc1C(F)(F)F (stereo not drawn) [Example 8, 1-(4-cyano-3-(trifluoromethyl)phenyl)-N-(5-(4-((4-((1-(2-(2,6-dioxopiperidin-3-yl)-1,3-dioxoisoindolin-5-yl)piperidin-4-yl)methyl)piperazin-1-yl)methyl)piperidin-1-yl)pyridin-2-yl)-4-fluoropiperidine-4-carboxamide] | 37% | 87% | 95% | 
8 | N#Cc1ncc(N2CCC(C(=O)Nc3ccc(N4CCC(CN5CCN(CC6CCN(c7ccc8c(c7)C(=O)N(C7CCC(=O)NC7=O)C8=O)CC6)CC5)CC4)cn3)CC2)cc1C(F)(F)F (stereo not drawn) [Example 9, 1-(6-cyano-5-(trifluoromethyl)pyridin-3-yl)-N-(5-(4-((4-((1-(2-(2,6-dioxopiperidin-3-yl)-1,3-dioxoisoindolin-5-yl)piperidin-4-yl)methyl)piperazin-1-yl)methyl)piperidin-1-yl)pyridin-2-yl)piperidine-4-carboxamide] | 62% | 95% | 95% | 
9 | N#Cc1ncc(N2CCC(F)(C(=O)Nc3ccc(N4CCC(CN5CCN(CC6CCN(c7ccc8c(c7)C(=O)N(C7CCC(=O)NC7=O)C8=O)CC6)CC5)CC4)cn3)CC2)cc1C(F)(F)F (stereo not drawn) [Example 10, 1-(6-cyano-5-(trifluoromethyl)pyridin-3-yl)-N-(5-(4-((4-((1-(2-(2,6-dioxopiperidin-3-yl)-1,3-dioxoisoindolin-5-yl)piperidin-4-yl)methyl)piperazin-1-yl)methyl)piperidin-1-yl)pyridin-2-yl)-4-fluoropiperidine-4-carboxamide] | 9% | 52% | 74% | 
10 | N#Cc1ccc(N2CCC(C(=O)Nc3ccc(N4CCC(CN5CCN(CC6CN(c7ccc8c(c7)C(=O)N(C7CCC(=O)NC7=O)C8=O)C6)CC5)CC4)cn3)CC2)cc1C(F)(F)F (stereo not drawn) [Example 11, 1-(4-cyano-3-(trifluoromethyl)phenyl)-N-(5-(4-((4-((1-(2-(2,6-dioxopiperidin-3-yl)-1,3-dioxoisoindolin-5-yl)azetidin-3-yl)methyl)piperazin-1-yl)methyl)piperidin-1-yl)pyridin-2-yl)piperidine-4-carboxamide] | 76% | 97% | 97% | 93%
11 | N#Cc1ccc(N2CCC(C(=O)Nc3ccc(N4CCC(CN5CCN(CC6CN(c7ccc8c(c7)C(=O)N(C7CCC(=O)NC7=O)C8=O)C6)CC5)CC4)cn3)CC2)cc1Cl (stereo not drawn) [Example 12, 1-(3-chloro-4-cyanophenyl)-N-(5-(4-((4-((1-(2-(2,6-dioxopiperidin-3-yl)-1,3-dioxoisoindolin-5-yl)azetidin-3-yl)methyl)piperazin-1-yl)methyl)piperidin-1-yl)pyridin-2-yl)piperidine-4-carboxamide] | 52% | 95% | 97% | 94%
12 | N#Cc1ccc(N2CCC(C(=O)Nc3ccc(N4CCC(CN5CCN(CC6CCN(c7cccc8c7C(=O)N(C7CCC(=O)NC7=O)C8=O)CC6)CC5)CC4)cn3)CC2)cc1C(F)(F)F (stereo not drawn) [Example 13, 1-(4-cyano-3-(trifluoromethyl)phenyl)-N-(5-(4-((4-((1-(2-(2,6-dioxopiperidin-3-yl)-1,3-dioxoisoindolin-4-yl)piperidin-4-yl)methyl)piperazin-1-yl)methyl)piperidin-1-yl)pyridin-2-yl)piperidine-4-carboxamide] | 59% | 91% | 94% | 
